Measurements reported in ChEMBL document CHEMBL5465560, “Selectivity Literature for EUbOPEN Chemogenomic Library” (2024).

Key:
[1] = target: Tyrosine-protein kinase FRK (Homo sapiens) (UniProt P42685); conditions: at 10 µM
[2] = target: Myosin-IIIa (Homo sapiens) (UniProt Q8NEV4); conditions: at 10 µM
Activated CDC42 kinase 1 = Activated CDC42 kinase 1 (Homo sapiens, UniProt Q07912); experiment: Selectivity interaction (KinomeScan (DiscoverX)) EUB0000092b TNK2; conditions: at 10 µM
[3] = target: Mitogen-activated protein kinase kinase kinase 10 (Homo sapiens) (UniProt Q02779); experiment: Selectivity interaction (KinomeScan (DiscoverX)) EUB0001079a MAP3K10; conditions: at 1 µM
Sequence of Mitogen-activated protein kinase kinase kinase 10 (Homo sapiens) (Q02779 whole entry, looked up): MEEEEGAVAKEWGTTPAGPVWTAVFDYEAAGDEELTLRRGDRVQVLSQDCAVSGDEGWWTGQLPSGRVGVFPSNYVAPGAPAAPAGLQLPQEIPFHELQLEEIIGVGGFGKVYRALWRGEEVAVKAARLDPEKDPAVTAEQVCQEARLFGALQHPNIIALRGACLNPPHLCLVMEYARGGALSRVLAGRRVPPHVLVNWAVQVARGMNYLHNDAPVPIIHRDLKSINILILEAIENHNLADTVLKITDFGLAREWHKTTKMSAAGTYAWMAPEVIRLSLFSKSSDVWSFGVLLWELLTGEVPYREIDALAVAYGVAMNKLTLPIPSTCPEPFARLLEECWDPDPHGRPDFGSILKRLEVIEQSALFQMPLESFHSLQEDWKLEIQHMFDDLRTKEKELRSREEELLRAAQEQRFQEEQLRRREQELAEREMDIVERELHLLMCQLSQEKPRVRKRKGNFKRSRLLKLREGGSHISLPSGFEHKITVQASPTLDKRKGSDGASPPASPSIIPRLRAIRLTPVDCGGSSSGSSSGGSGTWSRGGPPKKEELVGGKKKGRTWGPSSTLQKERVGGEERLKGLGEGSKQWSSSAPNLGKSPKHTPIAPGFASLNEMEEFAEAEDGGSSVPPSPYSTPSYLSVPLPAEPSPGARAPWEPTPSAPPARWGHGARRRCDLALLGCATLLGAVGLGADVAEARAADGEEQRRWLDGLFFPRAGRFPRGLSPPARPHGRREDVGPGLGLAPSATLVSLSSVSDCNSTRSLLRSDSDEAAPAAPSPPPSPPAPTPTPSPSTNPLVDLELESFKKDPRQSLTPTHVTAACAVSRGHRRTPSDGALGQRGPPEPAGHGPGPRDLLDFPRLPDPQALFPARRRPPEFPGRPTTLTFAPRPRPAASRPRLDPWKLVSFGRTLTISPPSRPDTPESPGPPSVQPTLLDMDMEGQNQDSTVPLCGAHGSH

[4] = target: T1, Cytoplasmic tyrosine-protein kinase BMX (Homo sapiens) (UniProt P51813); experiment: Selectivity interaction (Kinase panel (Z-LYTE Assay)) EUB0001632a BMX; conditions: at 10 µM
T1 sequence (whole entry): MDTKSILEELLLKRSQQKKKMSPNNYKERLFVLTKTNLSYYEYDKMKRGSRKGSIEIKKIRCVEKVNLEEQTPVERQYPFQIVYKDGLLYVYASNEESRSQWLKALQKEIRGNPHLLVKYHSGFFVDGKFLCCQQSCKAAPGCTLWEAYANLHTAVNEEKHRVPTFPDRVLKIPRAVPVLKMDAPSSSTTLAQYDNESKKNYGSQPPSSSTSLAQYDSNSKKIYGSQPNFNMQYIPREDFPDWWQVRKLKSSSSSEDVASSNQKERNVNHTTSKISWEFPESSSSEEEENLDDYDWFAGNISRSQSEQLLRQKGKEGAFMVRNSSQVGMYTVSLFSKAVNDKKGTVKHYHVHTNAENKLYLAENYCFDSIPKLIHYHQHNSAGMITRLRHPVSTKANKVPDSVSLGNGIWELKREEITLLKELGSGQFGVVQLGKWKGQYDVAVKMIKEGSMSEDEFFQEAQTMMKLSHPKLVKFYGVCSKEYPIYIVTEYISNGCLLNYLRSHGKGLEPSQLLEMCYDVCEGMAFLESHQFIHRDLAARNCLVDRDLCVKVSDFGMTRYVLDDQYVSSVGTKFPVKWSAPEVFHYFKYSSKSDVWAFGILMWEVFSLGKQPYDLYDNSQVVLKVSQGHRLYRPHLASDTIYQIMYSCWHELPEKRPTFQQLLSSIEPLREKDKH

[5] = target: G protein-coupled receptor kinase 5 (Homo sapiens, UniProt P34947); experiment: Selectivity interaction (Kinase panel (Z-LYTE Assay)) EUB0001632a GRK5; conditions: at 10 µM
Sequence of G protein-coupled receptor kinase 5 (P34947 whole entry, looked up): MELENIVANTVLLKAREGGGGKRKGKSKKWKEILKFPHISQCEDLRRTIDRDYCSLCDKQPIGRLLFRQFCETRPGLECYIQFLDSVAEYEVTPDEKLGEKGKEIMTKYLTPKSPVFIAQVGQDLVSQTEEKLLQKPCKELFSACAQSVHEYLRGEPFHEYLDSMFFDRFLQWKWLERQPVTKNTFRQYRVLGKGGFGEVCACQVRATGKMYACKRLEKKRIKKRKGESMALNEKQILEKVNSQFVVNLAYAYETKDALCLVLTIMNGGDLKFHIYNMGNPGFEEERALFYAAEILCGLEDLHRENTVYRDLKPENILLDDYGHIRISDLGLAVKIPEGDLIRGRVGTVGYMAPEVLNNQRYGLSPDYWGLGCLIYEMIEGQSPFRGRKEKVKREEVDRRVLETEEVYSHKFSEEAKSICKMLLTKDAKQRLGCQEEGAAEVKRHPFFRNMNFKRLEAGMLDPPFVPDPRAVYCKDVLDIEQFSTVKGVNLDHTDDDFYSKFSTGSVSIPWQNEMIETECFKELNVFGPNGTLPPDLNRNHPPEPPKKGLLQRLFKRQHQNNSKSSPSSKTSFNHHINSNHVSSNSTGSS

[6] = target: Ribosomal protein S6 kinase alpha-1 (Homo sapiens, UniProt Q15418); experiment: Selectivity interaction (ActivX KiNativ screen (kinase selectivity in THP-1 cell lysates)) EUB0000639a RPS6KA1; type: subcellular; conditions: lysate, at 5 µM
Sequence of Ribosomal protein S6 kinase alpha-1 (Q15418 whole entry): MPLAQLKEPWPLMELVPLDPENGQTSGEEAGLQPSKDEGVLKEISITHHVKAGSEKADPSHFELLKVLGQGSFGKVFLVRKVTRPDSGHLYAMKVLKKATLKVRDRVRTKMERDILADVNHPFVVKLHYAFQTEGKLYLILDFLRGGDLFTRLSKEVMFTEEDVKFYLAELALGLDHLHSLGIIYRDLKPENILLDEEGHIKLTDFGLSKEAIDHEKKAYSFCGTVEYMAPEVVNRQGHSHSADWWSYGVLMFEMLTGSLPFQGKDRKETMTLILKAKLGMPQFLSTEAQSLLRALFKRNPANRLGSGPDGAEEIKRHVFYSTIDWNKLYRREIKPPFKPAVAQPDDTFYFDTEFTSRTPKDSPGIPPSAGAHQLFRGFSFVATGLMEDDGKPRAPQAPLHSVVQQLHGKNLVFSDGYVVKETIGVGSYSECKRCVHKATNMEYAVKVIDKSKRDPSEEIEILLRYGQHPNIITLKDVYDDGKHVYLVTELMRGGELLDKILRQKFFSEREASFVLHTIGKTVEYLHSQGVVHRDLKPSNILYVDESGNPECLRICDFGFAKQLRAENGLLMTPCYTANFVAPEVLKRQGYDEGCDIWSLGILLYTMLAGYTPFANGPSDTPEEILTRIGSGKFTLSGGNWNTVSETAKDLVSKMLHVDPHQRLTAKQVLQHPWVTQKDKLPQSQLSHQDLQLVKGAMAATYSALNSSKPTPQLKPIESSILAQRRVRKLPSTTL

[7] = target: Dual specificity mitogen-activated protein kinase kinase 1 (Homo sapiens, UniProt Q02750); experiment: Selectivity interaction (KinomeScan (DiscoverX)) EUB0000607a MAP2K1; conditions: at 10 µM
Sequence of Dual specificity mitogen-activated protein kinase kinase 1 (Q02750 whole entry): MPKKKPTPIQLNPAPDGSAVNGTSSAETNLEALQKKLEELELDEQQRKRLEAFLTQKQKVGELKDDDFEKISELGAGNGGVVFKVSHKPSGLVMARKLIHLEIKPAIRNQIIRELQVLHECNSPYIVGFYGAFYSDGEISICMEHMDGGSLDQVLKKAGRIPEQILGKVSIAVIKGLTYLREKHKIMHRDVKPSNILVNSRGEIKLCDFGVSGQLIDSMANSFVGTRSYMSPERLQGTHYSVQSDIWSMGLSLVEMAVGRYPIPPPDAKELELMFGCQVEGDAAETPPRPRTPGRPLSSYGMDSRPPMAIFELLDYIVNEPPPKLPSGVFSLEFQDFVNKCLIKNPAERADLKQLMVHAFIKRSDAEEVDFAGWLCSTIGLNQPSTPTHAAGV

[8] = target: T2, NUAK family SNF1-like kinase 2 (Homo sapiens) (UniProt Q9H093); experiment: Selectivity interaction (KinomeScan (DiscoverX)) EUB0000595a NUAK2; conditions: at 10 µM
T2 sequence (whole entry): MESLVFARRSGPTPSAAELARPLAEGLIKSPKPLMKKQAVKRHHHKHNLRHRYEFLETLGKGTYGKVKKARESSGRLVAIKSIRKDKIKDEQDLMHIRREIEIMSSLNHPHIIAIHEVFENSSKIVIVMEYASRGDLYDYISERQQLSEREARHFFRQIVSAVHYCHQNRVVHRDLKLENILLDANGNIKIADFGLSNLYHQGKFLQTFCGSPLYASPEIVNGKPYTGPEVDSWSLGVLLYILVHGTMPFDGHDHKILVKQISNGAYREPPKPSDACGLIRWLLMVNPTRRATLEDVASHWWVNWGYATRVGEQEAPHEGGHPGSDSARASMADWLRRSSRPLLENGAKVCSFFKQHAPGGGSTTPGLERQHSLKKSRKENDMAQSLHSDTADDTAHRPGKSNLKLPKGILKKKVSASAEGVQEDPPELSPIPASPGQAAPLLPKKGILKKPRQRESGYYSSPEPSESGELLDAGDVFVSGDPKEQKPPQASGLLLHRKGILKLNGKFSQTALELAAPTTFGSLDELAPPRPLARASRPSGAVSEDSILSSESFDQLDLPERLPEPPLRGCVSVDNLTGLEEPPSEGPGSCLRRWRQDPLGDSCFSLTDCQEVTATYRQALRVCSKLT

[9] = target: Protein kinase C gamma type (Homo sapiens) (UniProt P05129); experiment: Selectivity interaction (Kinase screening (Upstate/Millipore)) EUB0000604a PRKCG
[10] = target: T3, Dual specificity mitogen-activated protein kinase kinase 4 (Homo sapiens) (UniProt P45985); experiment: Selectivity interaction (ActivX KiNativ screen (ex vivo kinase selectivity in human PBMCs)) EUB0001619a MAP2K4; type: cell-based; conditions: PBMC, at 1 µM
T3 sequence (whole entry): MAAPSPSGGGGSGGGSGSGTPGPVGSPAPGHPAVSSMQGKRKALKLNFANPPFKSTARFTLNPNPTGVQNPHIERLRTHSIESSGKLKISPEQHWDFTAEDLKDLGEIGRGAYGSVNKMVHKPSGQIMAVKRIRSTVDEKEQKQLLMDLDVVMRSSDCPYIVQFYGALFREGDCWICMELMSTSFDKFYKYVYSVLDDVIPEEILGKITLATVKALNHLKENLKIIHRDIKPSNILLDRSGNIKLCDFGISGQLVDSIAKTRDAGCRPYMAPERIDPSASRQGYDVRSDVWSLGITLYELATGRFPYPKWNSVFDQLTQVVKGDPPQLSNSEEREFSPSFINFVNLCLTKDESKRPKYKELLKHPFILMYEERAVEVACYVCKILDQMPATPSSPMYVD

Sequence of Tyrosine-protein kinase FRK (Homo sapiens) (P42685 whole entry): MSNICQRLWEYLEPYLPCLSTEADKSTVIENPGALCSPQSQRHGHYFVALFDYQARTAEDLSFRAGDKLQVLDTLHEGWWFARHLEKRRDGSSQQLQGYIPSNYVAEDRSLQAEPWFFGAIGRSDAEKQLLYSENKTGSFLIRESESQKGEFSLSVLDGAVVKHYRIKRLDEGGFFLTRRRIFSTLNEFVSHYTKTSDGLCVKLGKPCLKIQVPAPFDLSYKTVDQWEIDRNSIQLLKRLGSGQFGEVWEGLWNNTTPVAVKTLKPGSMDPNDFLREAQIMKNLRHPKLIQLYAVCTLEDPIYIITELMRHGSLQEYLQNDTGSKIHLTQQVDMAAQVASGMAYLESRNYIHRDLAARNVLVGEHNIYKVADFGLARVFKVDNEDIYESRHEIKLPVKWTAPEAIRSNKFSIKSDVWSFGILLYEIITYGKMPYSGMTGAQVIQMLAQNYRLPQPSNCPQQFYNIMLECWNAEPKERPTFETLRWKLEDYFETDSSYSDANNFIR
Sequence of Myosin-IIIa (Homo sapiens) (Q8NEV4 whole entry): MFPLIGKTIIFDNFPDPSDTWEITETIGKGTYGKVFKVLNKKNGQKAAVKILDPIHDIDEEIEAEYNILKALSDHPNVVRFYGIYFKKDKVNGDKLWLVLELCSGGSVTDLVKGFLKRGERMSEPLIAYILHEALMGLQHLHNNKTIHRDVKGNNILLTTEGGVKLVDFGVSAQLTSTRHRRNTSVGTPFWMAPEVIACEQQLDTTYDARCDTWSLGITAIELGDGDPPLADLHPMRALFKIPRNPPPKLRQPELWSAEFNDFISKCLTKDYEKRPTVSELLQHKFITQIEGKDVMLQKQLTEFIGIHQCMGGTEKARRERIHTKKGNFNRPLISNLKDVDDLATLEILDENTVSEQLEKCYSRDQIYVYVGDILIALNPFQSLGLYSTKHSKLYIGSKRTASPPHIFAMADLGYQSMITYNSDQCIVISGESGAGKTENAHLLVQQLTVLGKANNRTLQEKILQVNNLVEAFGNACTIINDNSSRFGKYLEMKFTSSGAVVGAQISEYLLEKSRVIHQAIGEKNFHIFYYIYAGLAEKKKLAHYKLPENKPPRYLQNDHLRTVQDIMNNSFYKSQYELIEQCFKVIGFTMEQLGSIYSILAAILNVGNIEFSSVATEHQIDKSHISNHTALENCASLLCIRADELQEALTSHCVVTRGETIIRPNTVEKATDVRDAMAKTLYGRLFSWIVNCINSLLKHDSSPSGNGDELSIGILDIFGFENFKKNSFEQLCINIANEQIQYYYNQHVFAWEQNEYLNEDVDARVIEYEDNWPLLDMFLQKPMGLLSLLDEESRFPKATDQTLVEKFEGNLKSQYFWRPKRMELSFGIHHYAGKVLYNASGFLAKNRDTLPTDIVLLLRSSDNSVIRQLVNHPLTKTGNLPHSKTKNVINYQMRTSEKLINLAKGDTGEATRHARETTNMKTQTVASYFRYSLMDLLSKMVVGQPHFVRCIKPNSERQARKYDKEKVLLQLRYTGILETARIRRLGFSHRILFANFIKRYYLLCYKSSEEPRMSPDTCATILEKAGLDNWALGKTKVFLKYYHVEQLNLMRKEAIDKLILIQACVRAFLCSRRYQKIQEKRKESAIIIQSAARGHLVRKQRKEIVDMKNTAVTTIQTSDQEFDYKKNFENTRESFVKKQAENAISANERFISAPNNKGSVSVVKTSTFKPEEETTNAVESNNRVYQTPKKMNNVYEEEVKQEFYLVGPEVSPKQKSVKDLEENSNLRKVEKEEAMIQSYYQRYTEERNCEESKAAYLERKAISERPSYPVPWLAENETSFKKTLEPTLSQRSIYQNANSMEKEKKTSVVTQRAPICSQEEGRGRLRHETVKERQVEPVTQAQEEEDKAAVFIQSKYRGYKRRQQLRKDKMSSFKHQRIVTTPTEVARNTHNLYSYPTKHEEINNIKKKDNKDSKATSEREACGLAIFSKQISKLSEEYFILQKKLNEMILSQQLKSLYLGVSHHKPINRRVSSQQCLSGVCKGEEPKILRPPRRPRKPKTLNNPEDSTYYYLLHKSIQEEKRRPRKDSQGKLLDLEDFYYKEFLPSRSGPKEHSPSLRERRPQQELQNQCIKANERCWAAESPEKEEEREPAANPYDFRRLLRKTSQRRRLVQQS

Question: `CCN(CC)CCCCNc1ncc2cc(-c3cc(OC)cc(OC)c3)c(NC(=O)NC(C)(C)C)nc2n1` was tested. Which % of control [1] did it give?
Answer: The % of control was 100%.

Question: What about the % of control [2] of the same compound?
Answer: The % of control was 100%.

Question: `CCC(=O)N1CCN(c2ccc(-n3c(=O)ccc4cnc5ccc(-c6cnc7ccccc7c6)cc5c43)cc2C(F)(F)F)CC1` was tested. Which % of control (Activated CDC42 kinase 1) did it give?
Answer: Its % of control is 51%.

Question: Which % of control [3] does the source give for `Nc1cnc(N2CCc3cc(S(=O)(=O)Nc4c(F)cc(Cl)cc4F)cc(N4CCCC4=O)c32)nc1` [TP-020n] here?
Answer: The % of control was 75%.

Question: For `Cn1cc(-n2cnc3c(NCc4nc5cc(Cl)c(Cl)cc5[nH]4)nc(N4CCOCC4)nc32)cn1`, which % of control [4] is on record?
Answer: The % of control was 2.67%.

Question: What about the % of control [5] of the same compound?
Answer: Its % of control is -0.027%.

Question: Which % of inhibition [6] does the source give for `CC[C@@H]1[C@H](F)C(=O)N[C@@H]1COc1nccc2cc(C(N)=O)c(OC)cc12` [ZIMLOVISERTIB] here?
Answer: Its % of inhibition is 11.7%.

Question: Which % of control [7] does the source give for `CNC(=O)Nc1ccc(-c2nc(N3CC4CCC(C3)O4)c3cnn(C4CCC5(CC4)OCCO5)c3n2)cc1` here?
Answer: Its % of control is 100%.

Question: `COCC(=O)NC/C=C/c1ccc2ncnc(Nc3ccc(Oc4ccc(C)nc4)c(C)c3)c2c1` [CP-724714] was tested. Which % of control [8] did it give?
Answer: The % of control was 100%.

Question: How did the % of inhibition [9] turn out when `Cc1cnc(Nc2ccc(F)cc2Cl)nc1-c1c[nH]c(C(=O)N[C@H](CO)c2cccc(Cl)c2)c1` was run?
Answer: Its % of inhibition is 11%.

Question: Which % of inhibition [10] does the source give for `N#Cc1cccc(-c2c[nH]c3ncnc(N4CCOCC4)c23)c1` here?
Answer: The % of inhibition was 19%.
